{"source": "paper PMC7070078", "about": "“Accelerated identification of serine racemase inhibitor from Centella asiatica” (Scientific Reports, 2020)", "molecules": {"B1": {"name": "recombinant human serine racemase (enzyme, UniProt Q9GZT4 1-340, looked up)", "chain": "MCAQYCISFADVEKAHINIRDSIHLTPVLTSSILNQLTGRNLFFKCELFQKTGSFKIRGALNAVRSLVPDALERKPKAVVTHSSGNHGQALTYAAKLEGIPAYIVVPQTAPDCKKLAIQAYGASIVYCEPSDESRENVAKRVTEETEGIMVHPNQEPAVIAGQGTIALEVLNQVPLVDALVVPVGGGGMLAGIAITVKALKPSVKVYAAEPSNADDCYQSKLKGKLMPNLYPPETIADGVKSSIGLNTWPIIRDLVDDIFTVTEDEIKCATQLVWERMKLLIEPTAGVGVAAVLSQHFQTVSPEVKNICIVLSGGNVDLTSSITWVKQAERPASYQSVSV", "notes": "serine racemase, human; printed size 37 kDa; no cleavage is described and the purified protein was later held on Ni-NTA beads; PLP was present in the purification buffers; also called SR; recombinant SR"}}, "key": {"[1]": {"biological_target": "T1, serine racemase (Homo sapiens, UniProt Q9GZT4)", "T1 sequence (Q9GZT4 1-340)": "B1 chain", "assay": "SR activity assay, reference inhibitor (Supplementary Fig. S6)", "assay_type": "biochemical", "parameters": "gene SRR; recombinant His-tagged human SR (1020 bp gene, NM_021947.1), expressed in E. coli"}, "[2]": {"biological_target": "T1, serine racemase", "assay": "affinity pull-down from Centella asiatica extract on immobilized SR, identified by LC-MS/MS and FTIR", "assay_type": "binding", "parameters": "gene SRR; recombinant His-tagged human SR immobilized on Ni-NTA beads"}, "[3]": {"biological_target": "the molecule itself", "assay": "SEC; Ni-NTA purified SR on Sephadex S-200, 1 ml/min, 20 mM Tris-HCl, 150 mM NaCl, 15 uM PLP pH 8.0"}}, "note": "Several values for one entry are separate records, joined by “and”; a condition that tells them apart may be missing. Identical values can stand only once.", "data": [{"molecule": "O=C(O)CC(=O)O", "note": "[malonate]", "values": [{"measurement": "IC50", "setting": "[1]", "value": 449, "unit": "µM"}]}, {"molecule": "C[C@H]1[C@H](C)CC[C@]2(C(=O)O)CC[C@]3(C)C(=CC[C@@H]4[C@@]5(C)C[C@@H](O)[C@H](O)[C@@](C)(CO)[C@@H]5[C@H](O)C[C@]43C)[C@H]12", "note": "[madecassic acid]", "values": [{"measurement": "affinity pull-down from Centella asiatica extract on immobilized SR, identified", "setting": "[2]", "value": "Madecassoside and madecassic acid are the two compounds identified from the CA plant extract binding to SR."}]}, {"molecule": "B1", "values": [{"measurement": "stoichiometry N", "setting": "[3]", "value": "2 and 4"}]}]}
